Measurements taken from ChEMBL document CHEMBL2311319, “Discovery of novel 1,4-dihydropyridine-based PDE4 inhibitors” (Bioorg Med Chem Lett, 2013).

Columns and labels:
[1] = biological target: T1, 3',5'-cyclic-AMP phosphodiesterase 4B (Homo sapiens, UniProt Q07343); assay: Inhibition of recombinant PDE4B1 (unknown origin) expressed in Sf9 cells at 30 uM pre-incubated with compound for 15 mins before incubation with cAMP substrate for 1 hr
[2] = biological target: 3',5'-cyclic-AMP phosphodiesterase 4D (Homo sapiens, UniProt Q08499); assay: Inhibition of recombinant PDE4D2 (unknown origin) expressed in Sf9 cells pre-incubated with compound for 15 mins before incubation with cAMP substrate for 1 hr
Chain of 3',5'-cyclic-AMP phosphodiesterase 4D (Q08499 whole entry): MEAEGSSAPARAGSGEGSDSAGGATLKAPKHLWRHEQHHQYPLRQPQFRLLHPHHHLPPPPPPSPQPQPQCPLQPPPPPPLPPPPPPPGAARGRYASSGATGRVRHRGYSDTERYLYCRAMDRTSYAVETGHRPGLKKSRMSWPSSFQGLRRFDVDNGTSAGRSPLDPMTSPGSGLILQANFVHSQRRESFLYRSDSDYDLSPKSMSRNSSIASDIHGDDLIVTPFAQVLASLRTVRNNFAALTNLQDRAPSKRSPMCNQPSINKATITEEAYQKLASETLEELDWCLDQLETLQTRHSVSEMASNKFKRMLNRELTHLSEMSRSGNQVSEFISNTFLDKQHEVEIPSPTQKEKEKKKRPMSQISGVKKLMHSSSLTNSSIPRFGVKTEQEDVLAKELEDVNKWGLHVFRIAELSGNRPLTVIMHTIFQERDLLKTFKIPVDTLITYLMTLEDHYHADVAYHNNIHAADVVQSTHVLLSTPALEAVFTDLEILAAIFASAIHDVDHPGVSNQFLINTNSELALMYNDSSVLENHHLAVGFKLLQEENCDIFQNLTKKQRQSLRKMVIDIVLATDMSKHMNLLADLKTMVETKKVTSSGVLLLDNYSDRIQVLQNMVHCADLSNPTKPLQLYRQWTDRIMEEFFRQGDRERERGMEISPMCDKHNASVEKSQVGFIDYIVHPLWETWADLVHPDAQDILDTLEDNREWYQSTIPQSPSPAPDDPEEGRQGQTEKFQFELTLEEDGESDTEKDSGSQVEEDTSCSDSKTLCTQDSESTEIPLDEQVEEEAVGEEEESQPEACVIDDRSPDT

[3] = system: RAW264.7; assay: Inhibition of LPS-induced TNFalpha production in mouse RAW264.7 cells pre-incubated with compound for 30 mins before LPS challenge by ELISA; assay type: functional, cell-based
[4] = biological target: T1, 3',5'-cyclic-AMP phosphodiesterase 4B; assay: Inhibition of recombinant PDE4B1 (unknown origin) expressed in Sf9 cells pre-incubated with compound for 15 mins before incubation with cAMP substrate for 1 hr

T1 sequence (Q07343 whole entry): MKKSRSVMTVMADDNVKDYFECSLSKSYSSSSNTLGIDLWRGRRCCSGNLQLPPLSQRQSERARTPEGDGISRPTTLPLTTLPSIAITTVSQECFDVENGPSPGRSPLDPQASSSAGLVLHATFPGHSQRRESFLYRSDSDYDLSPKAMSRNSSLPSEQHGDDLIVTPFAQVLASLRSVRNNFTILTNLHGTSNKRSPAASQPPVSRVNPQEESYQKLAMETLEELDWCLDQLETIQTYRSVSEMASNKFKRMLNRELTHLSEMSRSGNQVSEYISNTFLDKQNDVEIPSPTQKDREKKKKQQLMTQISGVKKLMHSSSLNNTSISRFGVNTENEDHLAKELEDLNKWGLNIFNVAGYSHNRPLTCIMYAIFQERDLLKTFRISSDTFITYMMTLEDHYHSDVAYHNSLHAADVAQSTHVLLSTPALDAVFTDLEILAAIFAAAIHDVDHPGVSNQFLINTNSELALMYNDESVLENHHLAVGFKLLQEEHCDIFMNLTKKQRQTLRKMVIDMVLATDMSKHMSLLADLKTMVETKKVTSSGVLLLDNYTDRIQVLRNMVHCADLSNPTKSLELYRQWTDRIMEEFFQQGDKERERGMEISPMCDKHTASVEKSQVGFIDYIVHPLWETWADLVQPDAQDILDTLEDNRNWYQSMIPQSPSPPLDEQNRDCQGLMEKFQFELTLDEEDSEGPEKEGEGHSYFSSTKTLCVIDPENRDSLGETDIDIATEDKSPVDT

SMILES | inhibition [1] [%] | other results
CCOC(=O)C1=CN(Cc2ccccc2Cl)C=C(C(=O)OCC)C1c1ccccc1 | 33 | 
CCOC(=O)C1=CN(Cc2ccc(OC)cc2)C=C(C(=O)OCC)C1c1ccc([N+](=O)[O-])cc1 | 38 | 
CCOC(=O)C1=CN(Cc2ccc(OC)c(OC)c2)C=C(C(=O)OCC)C1c1c[nH]c2ccccc12 | 95 | IC50 [2]: 650 nM; IC50 [3]: 3200 nM; IC50 [4]: 540 nM
CCOC(=O)C1=CN(Cc2ccc(OC)cc2)C=C(C(=O)OCC)C1c1cccc(F)c1 | 28 | 
CCOC(=O)C1=CN(Cc2ccc(OC)cc2)C=C(C(=O)OCC)C1c1ccc(Cl)cc1 | 23 | 
CCOC(=O)C1=CN(c2ccc(Cl)cc2)C=C(C(=O)OCC)C1c1ccc(Cl)cc1 | 23 | 
CCOC(=O)C1=CN(Cc2ccccc2Cl)C=C(C(=O)OCC)C1c1ccc(OC)cc1 | 58 | 
CCOC(=O)C1=CN(Cc2ccc(Cl)cc2)C=C(C(=O)OCC)C1c1cccc(F)c1 | 8 | 
CCCCCCCCN1C=C(C(=O)OCC)C(c2ccc(OC)cc2)C(C(=O)OCC)=C1 | 25 | 
CCOC(=O)C1=CN(Cc2ccc(Cl)cc2)C=C(C(=O)OCC)C1c1ccc(Cl)cc1 | 15 | 
CCOC(=O)C1=CN(Cc2ccc(C(F)(F)F)cc2)C=C(C(=O)OCC)C1c1ccc(OC)cc1 | 21 | 
CCOC(=O)C1=CN(Cc2ccccc2Cl)C=C(C(=O)OCC)C1c1ccc(O)cc1 | 49 | 
CCOC(=O)C1=CN(Cc2ccc3c(c2)OCO3)C=C(C(=O)OCC)C1c1ccc(OC)cc1 | 42 | 
CCOC(=O)C1=CN(c2ccc(Cl)cc2)C=C(C(=O)OCC)C1Cc1ccccc1 | 57.5 | 
CCOC(=O)C1=CN(Cc2ccc(OC)c(OC)c2)C=C(C(=O)OCC)C1c1cccc([N+](=O)[O-])c1 | 88 | IC50 [2]: 2890 nM; IC50 [4]: 1570 nM
CCCCCCCCCCCCCCCCN1C=C(C(=O)OCC)C(c2ccc(OC)cc2)C(C(=O)OCC)=C1 | 17 | 
CCOC(=O)C1=CN(Cc2ccc(C(F)(F)F)cc2)C=C(C(=O)OCC)C1c1ccc(O)cc1 | 35 | 
C=CCN1C=C(C(=O)OCC)C(c2ccc(Cl)cc2)C(C(=O)OCC)=C1 | 49.5 | 
CCOC(=O)C1=CN(Cc2ccccc2OC)C=C(C(=O)OCC)C1C1CC1 | 48 | 
CCOC(=O)C1=CN(Cc2ccc(OC)c(OC)c2)C=C(C(=O)OCC)C1c1cccc(Cl)c1 | 78 | 
CCOC(=O)C1=CN(Cc2ccc3c(c2)OCO3)C=C(C(=O)OCC)C1c1ccc(O)cc1 | 72 | 
C=CCN1C=C(C(=O)OCC)C(c2ccc(O)cc2)C(C(=O)OCC)=C1 | 51.5 | 
CCOC(=O)C1=CN(Cc2cccc(Cl)c2)C=C(C(=O)OCC)C1Cc1ccccc1 | 31 | 
CCOC(=O)C1=CN(Cc2ccc(OC)c(OC)c2)C=C(C(=O)OCC)C1Cc1ccccc1 | 79 | 
CCOC(=O)C1=CN(Cc2ccc(OC)c(OC)c2)C=C(C(=O)OCC)C1c1cccc2ccccc12 | 75 | 
CCOC(=O)C1=CN(c2ccc(OC)cc2)C=C(C(=O)OCC)C1c1ccc(Cl)cc1 | 33 | 
CCOC(=O)C1=CN(CC2CCCCC2)C=C(C(=O)OCC)C1c1ccc(Cl)cc1 | 28 | 
CCOC(=O)C1=CN(c2ccccc2)C=C(C(=O)OCC)C1c1ccc(Cl)cc1 | 30.5 | 
CCOC(=O)C1=CN(Cc2ccc(OC)c(OC)c2)C=C(C(=O)OCC)C1c1ccc(Cl)cc1 | 80 | IC50 [2]: 2780 nM; IC50 [4]: 3710 nM
